What was measured:
HSP90 [1] = assay: Effects of Tempol on gene expression in cardiac tissue of mice, chip-based microarray; type: in vivo
Protocol: To assess the effects of Tempol on gene expression, Tempol was administered to experimental mice at a dose of 5 mg/g of food from 14 months to 31 months after birth. Mice receiving the same food without the addition of Tempol were used as a negative control. At the age of 31 months, the experimental animals were sacrificed and the hearts were surgically removed. The expression of a broad spectrum of genes in the cardiac tissue was assessed using chip-based microarray technology. Such chips are well known in the art and are widely used to assess gene expression.

HSP90 [2] = assay: Treating a human subject with Tempol, serum level of HSP90 following treatment; type: in vivo; conditions: 2000 mg per day for 180 days
Protocol: (§1) A 70-kilogram human subject over the age of 65 is identified as having, or known to have, or suspected of having an increased expression level of HSP90. The human subject is administered a dose of 2000 mg of Tempol (or another nitroxide antioxidant) per day for 180 days. This may be administered in a single dose, or may be administered as a number of smaller doses over a 24-hour period: for example, four 500-mg doses at […]. Following treatment, the serum level of HSP90, is decreased.
as §1, with “subject” for “subject over the age of 65”
as §1, with “65 and having a cardiovascular disease” for “65”, “for an increased expression level of HSP90. Or a 70-kilogram human subject over the age of 65 is” for “as having, or”, “have a cardiovascular disease and/or” for “have, or suspected of having an”
as §1, with “at risk” for “over the age”, “developing colorectal cancer” for “65”, “for increased expression level of HSP90. Or a 70-kilogram human subject is” for “as having, or”, “be at risk” for “have, or suspected”, “developing colorectal cancer and/or have” for “having an”, “decreased. […]” for “decreased.”
A 70-kilogram human subject having an infection (e.g., a bacterial, fungal, or viral infection) is identified for increased expression level of HSP90. Or a 70-kilogram human subject is known to have an infection and/or have increased expression level of HSP90. The human subject is administered a dose of 2000 mg of Tempol (or another nitroxide antioxidant) per day for 180 days. This may be administered in a single dose, or may be administered as a number of smaller doses over a 24-hour period: for example, four 500-mg doses at […]. Following treatment, the serum level of HSP90, is decreased.

SMILES: CC1(C)CC(O)CC(C)(C)N1[O] [Tempol, 4-hydroxy-2,2,6,6-tetramethylpiperidine-1-oxyl]
- Fold change (expression of HSP90 in cardiac tissue after Tempol administration) (HSP90 [1]; Tempol 5 mg/g of food from 14 months to 31 months after birth, vs same food without Tempol, cardiac tissue at 31 months): −2.4
- HSP90 expression in cardiac tissue (HSP90 [1]; Tempol 5 mg/g of food from 14 to 31 months after birth, cardiac tissue, result in words): statistically significant decrease in expression
- serum level of HSP90 following treatment (HSP90 [2]; Example 2: 70-kilogram human subject over the age of 65 with increased expression level of HSP90): decreased
- serum level of HSP90 following treatment (HSP90 [2]; Example 3: 70-kilogram human subject with increased expression level of HSP90): decreased
- serum level of HSP90 following treatment (HSP90 [2]; Example 4: 70-kilogram human subject over the age of 65 having a cardiovascular disease): decreased
- serum level of HSP90 following treatment (HSP90 [2]; Example 5: 70-kilogram human subject at risk of developing colorectal cancer): decreased
- serum level of HSP90 following treatment (HSP90 [2]; Example 6: 70-kilogram human subject at risk of developing an autoimmune disease (e.g., rheumatoid arthritis)): decreased
- serum level of HSP90 following treatment (HSP90 [2]; Example 7: 70-kilogram human subject at risk of developing a condition due to aging): decreased
- serum level of HSP90 following treatment (HSP90 [2]; Example 8: 70-kilogram human subject at risk of developing a neurodegenerative disease (e.g., Parkinson's Disease)): decreased
- serum level of HSP90 following treatment (HSP90 [2]; Example 9: 70-kilogram human subject having an infection (bacterial, fungal, or viral)): decreased

— US11324737B1, “Modulating expression level of a gene encoding a heat shock protein by treating a human subject with a nitroxide” (priority 2021, dated 2022)
